Experimental data published in patent publication US20110092591A1, “PHENYL-PRENYL DERIVATIVES, OF MARINE AND SYNTHETIC ORIGIN, FOR THE TREATMENT OF COGNITIVE, NEURODEGENERATIVE OR NEURONAL DISEASES OR DISORDERS” (NOSCIRA S.A., priority 2008, published 2011).

Columns and labels:
Format in all cases: biochemical
[1] = biological target: T1, Recombinant human glycogen synthase kinase 3 beta (Homo sapiens, UniProt P49841); experiment: GSK-3 beta inhibition assay (33P-ATP, GS-2 peptide); conditions: 0.5 h, percentage of the enzyme activity (remaining), read-out: % Act. GSK-3 beta; for remaining activity at 25 µM: compound at 25 μM; for remaining activity at 50 µM: compound at 50 μM
Protocol: The GSK-3 beta activity of the compounds of formula (I) according to the present invention was determined by incubation of a mixture of recombinant human GSK-3 enzyme, a phosphate source and GSK-3 substrate in the presence and in the absence of the corresponding test compound, and by measuring the GSK-3 activity of this mixture. The compounds where tested at final concentrations of 25 and 50 μM.
Recombinant human glycogen synthase kinase 3 beta was assayed in MOPS 11 mM, pH 7.4, EDTA 0.2 mM, EGTA 1.25 mM, MgCl2 26.25 mM and sodium orthovanadate 0.25 mM in the presence of 62.5 μM of Phospho-Glycogen Synthase Peptide-2 (GS-2), 0.5 μCi gamma-^33P-ATP and unlabelled ATP at a final concentration of 12.5 μM. The final assay volume was 20 μl. After incubation for 30 minutes at 30° C., 15 μl aliquots were spotted onto P81 phosphocellulose papers. Filters were washed four times for at least 10 minutes each and counted with 1.5 ml of scintillation cocktail in a scintillation counter.
The compounds of formula (I) of the present invention where submitted to the above indicated assay, in order to determine their GSK-3 inhibition activity. The results are indicated in Table II, in percentage of the enzyme activity.

[2] = biological target: T1, Recombinant human glycogen synthase kinase 3 beta; experiment: as above
[3] = biological target: T2, rhBACE-1 β-Secretase recombinant human (Homo sapiens, UniProt P56817); experiment: BACE assay (FRET, fluorogenic peptide substrate); conditions: for % BACE Activity: percentage of the enzyme activity (remaining)
T2 construct: purchased R&D Systems 931-AS
Source text: The aim of this assay is to determine if a compound, either synthetic or of marine origin, is a BACE-1 inhibitor, to avoid the formation of Aβ. This assay is based on FRET technology (Fluorescence Resonance Energy Transfer). FRET is used to measure cleavage of a peptide substrate, among other uses. […] When a substrate peptide cleavage occurs, the energy balance is broken and all the donor fluorescence can be observed. The increase in fluorescence is linearly related to the rate of proteolysis (Gordon, G W et al., 1998). In this assay the reaction occurs between an enzyme, purified BACE-1, and a fluorogenic peptidic substrate who present the “Swedish mutation”. The peptide cleavage by BACE-1 produces fluorescence energy and enzymatic activity can be quantified.
The reagents which are used in this assay are the following:
rhBACE-1 β-Secretase recombinant human (R&D Systems. Ref. 931-AS).
Fluorogenic Peptide Substrate IV (R&D Systems. Ref. ES004).
Beta-SECRETASE INHIBITOR H-4848. (BACHEM. Ref. H-4848.0001).
The assay is carried out in a 96 wells microplate. The final concentration of substrate is 3.5 μM per well, and the enzyme concentration is 0.5 μg/ml. The final volume of the assay is 100 μl per well and all reagents are diluted in Reaction Buffer.
The compounds are tested at a concentration of 10^−5 and 10^−6 M. The control in the assay is the commercial inhibitor β-Secretase inhibitor H-4848 from BACHEM, which is tested at 300 nM. All the samples and controls are studied by duplicate.
The plate is mixed gently and changes in the fluorescence are measured using a fluorimeter plate reader, with 320 nm excitation filter and 405 nm emission filter. The temperature should be preferably maintained between 25 and 30° C. Measurements are carried out every ten minutes during an hour. The first measure is subtracted from the last to calculate the fluorescence increase, evaluating the enzymatic activity. The 100% activity is calculated as the mean of the results of wells without sample or inhibitor.
In the cases where abnormal effects in fluorescence were detected, BACE inhibition activity was assayed using BACE-1 (beta-Secretase) FRET ASSAY KIT (Invitrogen, Ref. P2985). Fluorescence was measured with a fluorimeter plate reader, with 544 nm excitation filter and 580 nm emission filter.
Further information regarding this assay may be found in the following references, which are incorporated by reference into the present application: • Andrau, D et al; “BACE1- and BACE2-expressing human cells: characterization of beta-Amyloid precursor protein-derived catabolites, design of a novel fluorimetric assay, and identification of new in vitro inhibitors”. J Biol Chem. 2003 Jul. 11; 278(28):25859-66. • Gordon, G W et al; “Quantitative fluorescence resonance energy transfer measurements using fluorescence microscopy.” Biophys J. 1998 May; 74:2702-13.
The compounds of formula (I) of the present invention where submitted to the above indicated assay, in order to determine their BACE activity inhibition. The results are indicated in Table I, in percentage of the enzyme activity.

T2 sequence (P56817 46-457 limits assumed): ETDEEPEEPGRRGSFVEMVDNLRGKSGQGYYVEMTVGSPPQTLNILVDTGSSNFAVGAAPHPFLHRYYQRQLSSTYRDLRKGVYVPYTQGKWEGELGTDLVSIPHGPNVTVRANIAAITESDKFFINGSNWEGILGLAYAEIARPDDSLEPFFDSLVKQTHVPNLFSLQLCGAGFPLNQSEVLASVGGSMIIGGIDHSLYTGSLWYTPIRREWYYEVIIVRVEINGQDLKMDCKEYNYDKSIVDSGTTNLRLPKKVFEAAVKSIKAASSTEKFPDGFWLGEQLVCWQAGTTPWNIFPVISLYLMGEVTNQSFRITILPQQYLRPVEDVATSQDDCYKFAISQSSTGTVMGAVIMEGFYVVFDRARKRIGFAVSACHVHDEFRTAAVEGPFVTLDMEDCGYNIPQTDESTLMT
T1 sequence (P49841 whole entry): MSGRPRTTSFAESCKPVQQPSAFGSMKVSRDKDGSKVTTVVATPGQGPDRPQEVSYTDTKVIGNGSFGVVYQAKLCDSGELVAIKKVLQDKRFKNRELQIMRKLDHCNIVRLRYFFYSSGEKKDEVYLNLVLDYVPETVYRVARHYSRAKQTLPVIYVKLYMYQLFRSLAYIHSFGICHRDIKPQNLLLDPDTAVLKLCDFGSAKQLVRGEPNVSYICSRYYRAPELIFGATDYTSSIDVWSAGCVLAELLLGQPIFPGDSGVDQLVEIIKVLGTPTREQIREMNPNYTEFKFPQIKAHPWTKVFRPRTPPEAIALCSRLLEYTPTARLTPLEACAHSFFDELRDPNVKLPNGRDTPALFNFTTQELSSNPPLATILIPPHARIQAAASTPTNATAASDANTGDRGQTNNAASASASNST

Row | Compound | remaining activity at 25 µM [1] [%] | remaining activity at 50 µM [1] [%] | IC50 [2] [µM] | % BACE Activity ([3]; compound at 1 μM) [%] | % BACE Activity ([3]; compound at 10 μM) [%] | IC50 ([3]; given in M) [µM]
1 | CC(C)=CCC/C(C)=C/CC/C(C)=C/CC/C(C)=C/Cc1cc(C(=O)O)ccc1O [Compound 1, (2E,6E,10E)-4-Hydroxy-3-(3,7,11,15-tetramethyl-hexadeca-2,6,10,14-tetraenyl)-benzoic acid] | 5.43 | 2.82 | 4.42 | 45 ± 21 | 0 | 
2 | CC(C)=CCC/C(C)=C/CC/C(C)=C/CC/C(C)=C/Cc1cc(O)ccc1O [Compound 2] | 37.7 | 5.04 | 12.5 | 100 | 13 ± 14 | 
3 | C/C(=C\CC/C(C)=C/CC/C(C)=C/Cc1cc(C(=O)O)ccc1O)C/C=C/C(C)(C)O [Compound 3] | 52.9 | 4.19 | 55.8 |  |  | 
4 | CC(C)=CCC/C(C)=C/CC/C(C)=C/CC/C(C)=C/CC/C(C)=C/Cc1cc(O)ccc1O [Compound 4] | 17.8 | 17.7 | 9.97 |  |  | 
5 | COC(=O)c1ccc(O)c(C/C=C(\C)CC/C=C(\C)CC/C=C(\C)CCC=C(C)C)c1 [Compound 5] |  | 70.8 |  |  |  | 
6 | CC(C)=CCc1cc(C(=O)O)ccc1O [Compound 6] | 71.6 | 78 |  | 100 | 100 | 
7 | COCOc1ccc(C=O)cc1C/C=C(\C)CCC=C(C)C [Compound 8, (2E)-3-(3,7-dimethyl-octa-2,6-dienyl)-4-methoxymethoxy-benzaldehyde] | 33.5 | 3.08 | 16 | 100 | 42 ± 5 | 
8 | COCOc1ccc(C=O)cc1C/C=C(\C)CC/C=C(\C)CCC=C(C)C [Compound 9, (2E,6E)-4-methoxymethoxy-3-(3,7,11-trimethyl-dodeca-2,6,10-trienyl)-benzaldehyde] | 61.3 | 5.75 |  | 94 ± 22 | 60 ± 16 | 37
9 | CC(C)=CCC/C(C)=C/Cc1cc(C=O)ccc1O [Compound 11] | 12.1 | 1.07 | 8.6 | 91 ± 6 | 44 ± 12 | 
10 | CC(C)=CCC/C(C)=C/CC/C(C)=C/Cc1cc(C=O)ccc1O [Compound 12] | 9.26 | 0.95 | 7.87 | 57 ± 2 | 41 ± 4 | 
11 | CC(C)=CCC/C(C)=C/CC/C(C)=C/CC/C(C)=C/Cc1cc(C=O)ccc1O [Compound 13] | 52 | 4.71 | 17.4 | 100 | 88 ± 8.5 | 
12 | CC(C)=CCC/C(C)=C/Cc1cc(C(=O)O)ccc1O [Compound 14] | 75.7 | 60.3 |  | 100 | 84 ± 6 | 
13 | CC(C)=CCC/C(C)=C/CC/C(C)=C/Cc1cc(C(=O)O)ccc1O [Compound 15] | 24.6 | 3.27 | 11 | 100 | 5 ± 9 | 
14 | CC(C)=CCC/C(C)=C/CC/C(C)=C/CC/C(C)=C/Cc1cc(C(=O)OCc2ccccc2)ccc1OCc1ccccc1 [Compound 17] | 71.9 | 52.1 |  | 100 | 100 | 
15 | CCNC(=O)c1ccc(O)c(C/C=C(\C)CC/C=C(\C)CC/C=C(\C)CCC=C(C)C)c1 [Compound 18] | 32.8 | 13.3 |  | 100 | 100 | 
16 | COCOC(=O)c1ccc(OC(C)=O)c(C/C=C(\C)CC/C=C(\C)CC/C=C(\C)CCC=C(C)C)c1 [Compound 20, (2E,6E,10E)-4-Acetoxy-3-(3,7,11,15-tetramethyl-hexadeca-2,6,10,14-tetraenyl)-benzoic acid methoxymethyl ester] | 51 | 17.7 |  | 100 | 100 | 
17 | COCOc1ccc(C(=O)O)cc1C/C=C(\C)CCC=C(C)C [Compound 21] | 100 | 79.9 |  | 88 ± 9 | 27 ± 3 | 
18 | CC(C)=CCC/C(C)=C/CC/C(C)=C/Cc1cc(C=O)ccc1OCc1ccccc1 [Compound 23] | 2.22 | 2.01 |  | 99 ± 2 | 88 ± 13 | 
19 | CC(C)=CCC/C(C)=C/CC/C(C)=C/CC/C(C)=C/Cc1cc(C(=O)OCc2ccccc2)ccc1O [Compound 24] | 49.7 | 22.8 |  | 100 | 100 | 
20 | CC(C)=CCC/C(C)=C/CC/C(C)=C/Cc1cc(C(=O)O)ccc1OCc1ccccc1 [Compound 26] | 71.4 | 41 |  | 100 | 100 | 
21 | CC(C)=CCC/C(C)=C/Cc1cc(C(=O)O)ccc1OCc1ccccc1 [Compound 27] | 85.1 | 65.8 |  | 34 ± 27 | 0 ± 0 | 
